In PubChem BioAssay AID2060889 (Molecular Pharmacology Branch, DTP, NCI, 2025):

Test system: LG0567-F671-PDC complex spheroids viability
Test: Anticancer human tumor LG0567-F671-PDC patient-derived lung adenocarcinoma cell line growth inhibition [RAS]
Conditions: for IC50: curve of first compound; for viability, T/C: stronger effect = lower value
Outline: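 Agents were tested in combination matrices in half-log decrements from a top concentration at or near clinical Cmax (10 microM if undetermined). Targets were multi-cell spheroids of tumour lines plus HUVEC and MSC stromal cells.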

[1] = second compound 0.00316 µM, first compound 0.00316 µM
[2] = second compound 0.00316 µM, first compound 0.01 µM
[3] = second compound 0.00316 µM, first compound 0.0316 µM
[4] = second compound 0.00316 µM, first compound 0.1 µM
[5] = second compound 0.00316 µM, first compound 0.316 µM
[6] = second compound 0.00316 µM, first compound 1 µM
[7] = second compound 0.01 µM, first compound 0.00316 µM
[8] = second compound 0.01 µM, first compound 0.01 µM
[9] = second compound 0.01 µM, first compound 0.0316 µM
[10] = second compound 0.01 µM, first compound 0.1 µM
[11] = second compound 0.01 µM, first compound 0.316 µM
[12] = second compound 0.01 µM, first compound 1 µM
[13] = second compound 0.0316 µM, first compound 0.00316 µM
[14] = second compound 0.0316 µM, first compound 0.01 µM
[15] = second compound 0.0316 µM, first compound 0.0316 µM
[16] = second compound 0.0316 µM, first compound 0.1 µM
[17] = second compound 0.0316 µM, first compound 0.316 µM
[18] = second compound 0.0316 µM, first compound 1 µM
[19] = second compound 0.1 µM, first compound 0.00316 µM
[20] = second compound 0.1 µM, first compound 0.01 µM
[21] = second compound 0.1 µM, first compound 0.0316 µM
[22] = second compound 0.1 µM, first compound 0.1 µM
[23] = second compound 0.1 µM, first compound 0.316 µM
[24] = second compound 0.1 µM, first compound 1 µM
[25] = second compound 0.316 µM, first compound 0.00316 µM
[26] = second compound 0.316 µM, first compound 0.01 µM
[27] = second compound 0.316 µM, first compound 0.0316 µM
[28] = second compound 0.316 µM, first compound 0.1 µM
[29] = second compound 0.316 µM, first compound 0.316 µM
[30] = second compound 0.316 µM, first compound 1 µM
[31] = second compound 1 µM, first compound 0.00316 µM
[32] = second compound 1 µM, first compound 0.01 µM
[33] = second compound 1 µM, first compound 0.0316 µM
[34] = second compound 1 µM, first compound 0.1 µM
[35] = second compound 1 µM, first compound 0.316 µM
[36] = second compound 1 µM, first compound 1 µM
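Note: spheroids exposed to compound for seven days before readout.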
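Throughout, for IC50: luminescence signal used as a proxy for viable cells.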

## C=CC(=O)Nc1cc(Nc2nccc(-c3cn(C)c4ccccc34)n2)c(OC)cc1N(C)CCN(C)C + C=CC(=O)N1CCN(c2nc(OCC3CCCN3C)nc3c(F)c(-c4nc(N)cc(C)c4C(F)(F)F)c(Cl)cc23)C(C)C1
Second compound 0.00316 µM
  IC50: < 3.16 nM
Second compound 0.01 µM
  IC50: < 3.16 nM
Second compound 0.0316 µM
  IC50: < 3.16 nM
Second compound 0.1 µM
  IC50: < 3.16 nM
Second compound 0.316 µM
  IC50: < 3.16 nM
Second compound 1 µM
  IC50: < 3.16 nM
[1]
  viability, T/C: 18.7%
[2]
  viability, T/C: 15.6%
[3]
  viability, T/C: 12.6%
[4]
  viability, T/C: 12.6%
[5]
  viability, T/C: 4.81%
[6]
  viability, T/C: 3.52%
[7]
  viability, T/C: 15.1%
[8]
  viability, T/C: 12.1%
[9]
  viability, T/C: 10%
[10]
  viability, T/C: 8.19%
[11]
  viability, T/C: 4.72%
[12]
  viability, T/C: 2.49%
[13]
  viability, T/C: 13.3%
[14]
  viability, T/C: 12.7%
[15]
  viability, T/C: 9.76%
[16]
  viability, T/C: 7.26%
[17]
  viability, T/C: 6.15%
[18]
  viability, T/C: 2.62%
[19]
  viability, T/C: 15%
[20]
  viability, T/C: 11.8%
[21]
  viability, T/C: 9.84%
[22]
  viability, T/C: 7.87%
[23]
  viability, T/C: 4.28%
[24]
  viability, T/C: 2.86%
[25]
  viability, T/C: 14%
[26]
  viability, T/C: 11.4%
[27]
  viability, T/C: 9.92%
[28]
  viability, T/C: 6.96%
[29]
  viability, T/C: 4.73%
[30]
  viability, T/C: 3.38%
[31]
  viability, T/C: 13.3%
[32]
  viability, T/C: 12.2%
[33]
  viability, T/C: 11.4%
[34]
  viability, T/C: 10.6%
[35]
  viability, T/C: 4.57%
[36]
  viability, T/C: 3.23%

## CC(Nc1ccc2c(c1)OCCn1cc(N3C(=O)OCC3C(F)F)nc1-2)C(N)=O (stereo unspecified) + C=CC(=O)N1CCN(c2nc(OCC3CCCN3C)nc3c(F)c(-c4nc(N)cc(C)c4C(F)(F)F)c(Cl)cc23)C(C)C1
Second compound 0.00316 µM
  IC50: < 31.6 nM
Second compound 0.01 µM
  IC50: < 31.6 nM
Second compound 0.0316 µM
  IC50: < 31.6 nM
Second compound 0.1 µM
  IC50: < 31.6 nM
Second compound 0.316 µM
  IC50: < 31.6 nM
Second compound 1 µM
  IC50: < 31.6 nM
[3]
  viability, T/C: 15.2%
[4]
  viability, T/C: 10.8%
[5]
  viability, T/C: 10.1%
[6]
  viability, T/C: 7.83%
Second compound 0.00316 µM, first compound 3.16 µM
  viability, T/C: 7.01%
Second compound 0.00316 µM, first compound 10 µM
  viability, T/C: 5.88%
[9]
  viability, T/C: 12%
[10]
  viability, T/C: 8.85%
[11]
  viability, T/C: 8.39%
[12]
  viability, T/C: 5.85%
Second compound 0.01 µM, first compound 3.16 µM
  viability, T/C: 5.99%
Second compound 0.01 µM, first compound 10 µM
  viability, T/C: 4.79%
[15]
  viability, T/C: 10.2%
[16]
  viability, T/C: 9.26%
[17]
  viability, T/C: 7.97%
[18]
  viability, T/C: 5.73%
Second compound 0.0316 µM, first compound 3.16 µM
  viability, T/C: 5.76%
Second compound 0.0316 µM, first compound 10 µM
  viability, T/C: 4.64%
[21]
  viability, T/C: 13%
[22]
  viability, T/C: 8.09%
[23]
  viability, T/C: 6.28%
[24]
  viability, T/C: 5.63%
Second compound 0.1 µM, first compound 3.16 µM
  viability, T/C: 5.99%
Second compound 0.1 µM, first compound 10 µM
  viability, T/C: 4.82%
[27]
  viability, T/C: 10.5%
[28]
  viability, T/C: 8.03%
[29]
  viability, T/C: 7.03%
[30]
  viability, T/C: 5.34%
Second compound 0.316 µM, first compound 3.16 µM
  viability, T/C: 6.43%
Second compound 0.316 µM, first compound 10 µM
  viability, T/C: 5.3%
[33]
  viability, T/C: 11.4%
[34]
  viability, T/C: 9.66%
[35]
  viability, T/C: 6.71%
[36]
  viability, T/C: 6.57%
Second compound 1 µM, first compound 3.16 µM
  viability, T/C: 7.01%
Second compound 1 µM, first compound 10 µM
  viability, T/C: 5.23%

## O=C(c1ccc(F)c(F)c1Nc1ccc(I)cc1F)N1CC(O)([C@@H]2CCCCN2)C1 + C=CC(=O)N1CCN(c2nc(OCC3CCCN3C)nc3c(F)c(-c4nc(N)cc(C)c4C(F)(F)F)c(Cl)cc23)C(C)C1
Second compound 0.00316 µM
  IC50: < 3.16 nM
Second compound 0.01 µM
  IC50: < 3.16 nM
Second compound 0.0316 µM
  IC50: < 3.16 nM
Second compound 0.1 µM
  IC50: < 3.16 nM
Second compound 0.316 µM
  IC50: < 3.16 nM
Second compound 1 µM
  IC50: < 3.16 nM
[1]
  viability, T/C: 15.6%
[2]
  viability, T/C: 16.9%
[3]
  viability, T/C: 8.91%
[4]
  viability, T/C: 8.75%
[5]
  viability, T/C: 3.51%
[6]
  viability, T/C: 1.58%
[7]
  viability, T/C: 12.4%
[8]
  viability, T/C: 11.6%
[9]
  viability, T/C: 10.7%
[10]
  viability, T/C: 5.03%
[11]
  viability, T/C: 3.8%
[12]
  viability, T/C: 1.56%
[13]
  viability, T/C: 11.8%
[14]
  viability, T/C: 8.27%
[15]
  viability, T/C: 7.53%
[16]
  viability, T/C: 5.24%
[17]
  viability, T/C: 3.75%
[18]
  viability, T/C: 1.45%
[19]
  viability, T/C: 11.5%
[20]
  viability, T/C: 9.3%
[21]
  viability, T/C: 6.61%
[22]
  viability, T/C: 5.01%
[23]
  viability, T/C: 2.96%
[24]
  viability, T/C: 1.42%
[25]
  viability, T/C: 12.2%
[26]
  viability, T/C: 9.6%
[27]
  viability, T/C: 6.94%
[28]
  viability, T/C: 5.35%
[29]
  viability, T/C: 3.61%
[30]
  viability, T/C: 1.71%
[31]
  viability, T/C: 12.3%
[32]
  viability, T/C: 10.1%
[33]
  viability, T/C: 7.82%
[34]
  viability, T/C: 5.94%
[35]
  viability, T/C: 4.07%
[36]
  viability, T/C: 1.77%
